Data from US10815238B2, “Antimicrobial compounds and methods of making and using the same” (BIOVERSYS AG, priority 2013, dated 2020).

system: Eschericia coli (E. coli) strain ATCC25922; assay: Standard microdilution assay, MIC against E. coli ATCC25922; format: cell-based; details: Escherichia coli; E. coli strain ATCC25922, standard microdilution assay; cutoff 16 micrograms/mL; read-out: MIC E. Coli
Procedure: The in vitro activity of the compounds of the present invention can be determined. Antimicrobial testing is typically performed to determine the minimum inhibitory concentration (MIC). Minimum inhibitory concentrations (MICs) are determined by the microdilution method in a final volume of 100 μl according to protocols outlined by The Clinical and Laboratory Standards Institute (CLSI). Performance standards for reference strains are assessed within the same experimental design to maintain quality control. See, for example, Clinical Laboratory Standards Institute: Methods for dilution antimicrobial susceptibility tests for bacteria that grow aerobically M7-A8. Approved Standard-Eighth Edition. Wayne, Pa.: CLSI; December 2008; and Clinical Laboratory Standards Institute: Performance Standards for Antimicrobial Susceptibility Testing M100-S20; Approved Standard-Twentieth Edition. Wayne, Pa.: CLSI; June 2010.
The compounds of the present invention were tested for antimicrobial activity. The Compounds 1-582 were run against Eschericia coli (E. coli) strain ATCC25922 and Compounds 320-582 were run against Staphylococcus aureus (S. aureus) 11540 strain using a standard microdilution assay to determine minimum inhibitory concentrations (MICs). […] It will be recognized by one skilled in the art that the compounds can be assessed against other bacterial organisms and that the presentation of data for activity against Eschericia coli and Staphylococcus aureus are illustrative and in no way is intended to limit the scope of the present invention. The compounds of the present invention can be assayed against a range of other microorganisms depending upon the performance activity desired to be gathered. Furthermore, the “+” and “−” representation and the selection of a cutoff value of 16 micrograms/mL is also illustrative and in no way is intended to limit the scope of the present invention.

| MIC | Structure (SMILES) |
| --- | --- |
| < 16 µg/mL | C[C@H](N)CCCc1cc(Cl)c(F)c(-c2cc3cn(-c4ccc([C@H](C)NCC[C@H](CCN)NC(=N)N)cc4)c(=O)nc3[nH]2)c1 [Compound 312] |
| < 16 µg/mL | C=CC[C@H](CCN[C@@H](C)c1ccc(-n2cc3cc(-c4cc(CCC[C@H](C)N)cc(Cl)c4F)[nH]c3nc2=O)cc1)NC(=N)N [Compound 251] |
| < 16 µg/mL | C[C@H](NCCCNC(=N)N)c1ccc(-n2cc3cc(-c4cc(CCC[C@@H](N)COC(=O)Nc5ccccc5)cc(Cl)c4F)[nH]c3nc2=O)cc1 [Compound 307] |
| < 16 µg/mL | C[C@H](N)CCCc1cc(OC(F)(F)F)c(F)c(-c2cc3cn(-c4ccc([C@H](C)NCC[C@H](C)NC(=N)N)cc4)c(=O)nc3[nH]2)c1 [Compound 224] |
| < 16 µg/mL | C=CC[C@@H](CCNCc1ccc(-n2cc3cc(-c4cc(CCC[C@H](C)N)cc(Cl)c4F)[nH]c3nc2=O)cc1)NC(=N)N [Compound 202] |
| < 16 µg/mL | C[C@H](N)CCCc1cc(OC(F)(F)F)c(F)c(-c2cc3cn(-c4ccc([C@H](C)NCC[C@H](CCO)NC(=N)N)cc4)c(=O)nc3[nH]2)c1 [Compound 245] |
| < 16 µg/mL | CSC[C@@H](CCN[C@@H](C)c1ccc(-n2cc3cc(-c4cc(CCC[C@H](C)N)cc(OC(F)(F)F)c4F)[nH]c3nc2=O)cc1)NC(=N)N [Compound 288] |
| < 16 µg/mL | C[C@H](N)CCCc1cc(Cl)c(F)c(-c2cc3cn(-c4ccc([C@H](C)NCC[C@@H](CCN)NC(=N)N)cc4)c(=O)nc3[nH]2)c1 [Compound 313] |
| < 16 µg/mL | C[C@H](N)CCCc1cc(OC(F)(F)F)c(F)c(-c2cc3cn(-c4ccc([C@H](N)CCCCNC(=N)N)cc4)c(=O)nc3[nH]2)c1 [Compound 234] |
| < 16 µg/mL | C[C@H](N)CCCc1cc(Cl)c(F)c(-c2cc3cn(-c4ccc([C@H](C)NCC[C@H](Cc5c[nH]nn5)NC(=N)N)cc4)c(=O)nc3[nH]2)c1 [Compound 267] |
| < 16 µg/mL | C[C@H](NCCCNC(=N)N)c1ccc(-n2cc3cc(-c4cc(CCC[C@H](C)NC(=N)N)cc(Cl)c4F)[nH]c3nc2=O)cc1 [Compound 309] |
| < 16 µg/mL | C[C@H](NCCCNC(=N)N)c1ccc(-n2cc3cc(-c4cc(CCC[C@@H](N)CN)cc(Cl)c4F)[nH]c3nc2=O)cc1 [Compound 319] |
| < 16 µg/mL | C[C@H](N)CCCc1cc(Cl)c(F)c(-c2cc3cn(-c4ccc([C@H](N)C(=O)NCCNC(=N)N)cc4)c(=O)nc3[nH]2)c1 [Compound 253] |
| < 16 µg/mL | C[C@H](NCCCNC(=N)N)c1ccc(-n2cc3cc(-c4cc(CCC[C@@H](N)COC(=O)CCC(=O)O)cc(Cl)c4F)[nH]c3nc2=O)cc1 [Compound 308] |
| < 16 µg/mL | C[C@H](NCCCNC(=N)N)c1ccc(-n2cc3cc(-c4cc(CCC[C@@H](N)COC(=O)c5ccccc5)cc(Cl)c4F)[nH]c3nc2=O)cc1 [Compound 300] |
| < 16 µg/mL | CNCCCN[C@@H](C)c1ccc(-n2cc3cc(-c4cc(CCC[C@H](C)N)cc(Cl)c4F)[nH]c3nc2=O)cc1 [Compound 208] |
| < 16 µg/mL | CCc1c(F)c(CCC[C@H](C)N)cc(-c2cc3cn(-c4ccc([C@H](C)NCCCN)cc4)c(=O)nc3[nH]2)c1F [Compound 217] |
| < 16 µg/mL | C[C@H](N)CCCc1cc(OC(F)(F)F)c(F)c(-c2cc3cn(-c4ccc([C@H](C)NCC[C@H](C)N)cc4)c(=O)nc3[nH]2)c1 [Compound 223] |

The remaining lines, values behind:

| Structure (SMILES) | MIC |
| --- | --- |
| C[C@H](N)CCCc1cc(SC(F)(F)F)cc(-c2cc3cn(-c4ccc([C@H](CCCO)NCCCNC(=N)N)cc4)c(=O)nc3[nH]2)c1 [Compound 100] | < 16 µg/mL |
| C[C@H](N)CCCc1cc(Cl)c(F)c(-c2cc3cn(-c4ccc([C@@H](N)CCN(C(=O)c5ccccc5)c5nccs5)cc4)c(=O)nc3[nH]2)c1 [Compound 161] | > 16 µg/mL |
| C[C@H](NCCCNC(=N)N)c1ccc(-n2cc3cc(-c4cc(SC(F)(F)F)cc([C@H](O)CC[C@H](N)CO)c4)[nH]c3nc2=O)cc1 [Compound 111] | < 16 µg/mL |
| C[C@H](N)CCCc1cc(SC(F)(F)F)cc(-c2cc3cn(-c4ccc(CNCc5ccncc5)cc4)c(=O)nc3[nH]2)c1 [Compound 128] | > 16 µg/mL |
| C[C@H](NCCCNC(=N)N)c1ccc(-n2cc3cc(-c4cc(CCC[C@H](C)NC(=O)OCc5ccccc5)cc(Cl)c4F)[nH]c3nc2=O)cc1 [Compound 67] | < 16 µg/mL |
| C[C@H](NCCCNC(=N)N)c1ccc(-n2cc3cc(-c4cc(CCC[C@@H](N)CF)cc(SC(F)(F)F)c4)[nH]c3nc2=O)cc1 [Compound 117] | < 16 µg/mL |
| C[C@H](N)CCCc1cc(-c2cc3cn(-c4ccc([C@H]5COC(=O)N5CCCNC(=N)N)cc4)c(=O)nc3[nH]2)cc(C(F)(F)F)c1 [Compound 98] | < 16 µg/mL |
| COc1ccc([C@H](NCCCNC(=N)N)c2ccc(-n3cc4cc(-c5cc(CCC[C@H](C)N)cc(Cl)c5F)[nH]c4nc3=O)cc2)cc1 [Compound 5] | < 16 µg/mL |
| C[C@H](N)CCCc1cc(Cl)c(F)c(-c2cc3cn(-c4ccc([C@H](CCF)NCCCNC(=N)N)cc4)c(=O)nc3[nH]2)c1 [Compound 74] | < 16 µg/mL |
| COc1ccc([C@H](c2ccc(SC)cc2)c2ccc(-n3cc4cc(-c5cc(CCC[C@H](C)N)cc(SC(F)(F)F)c5)[nH]c4nc3=O)cc2)cc1 [Compound 8] | > 16 µg/mL |
| C=C[C@H](N)COCc1cc(SC(F)(F)F)cc(-c2cc3cn(-c4ccc([C@H](C)NCCCNC(=N)N)cc4)c(=O)nc3[nH]2)c1 [Compound 63] | < 16 µg/mL |
| C=C[C@@H](N)CCNCc1ccc(-n2cc3cc(-c4cc(CCC[C@H](C)N)cc(Cl)c4F)[nH]c3nc2=O)cc1 [Compound 173] | < 16 µg/mL |
| CC[C@@H](N)COCc1cc(SC(F)(F)F)cc(-c2cc3cn(-c4ccc([C@H](C)NCCCNC(=N)N)cc4)c(=O)nc3[nH]2)c1 [Compound 77] | < 16 µg/mL |
| COCC[C@H](NCCCNC(=N)N)c1ccc(-n2cc3cc(-c4cc(CCC[C@H](C)N)cc(SC(F)(F)F)c4)[nH]c3nc2=O)cc1 [Compound 30] | < 16 µg/mL |
| C[C@H](N)CCCc1cc(SC(F)(F)F)cc(-c2cc3cn(-c4ccc([C@H](Cc5cccnc5)NCCCNC(=N)N)cc4)c(=O)nc3[nH]2)c1 [Compound 57] | < 16 µg/mL |
| C=CCC[C@H](NCCCNC(=N)N)c1ccc(-n2cc3cc(-c4cc(CCC[C@H](C)N)cc(SC(F)(F)F)c4)[nH]c3nc2=O)cc1 [Compound 82] | < 16 µg/mL |
| C[C@H](N)CCCc1cc(Cl)c(F)c(-c2cc3cn(-c4ccc([C@H](N)CCCCNC(=N)N)cc4)c(=O)nc3[nH]2)c1 [Compound 92] | < 16 µg/mL |
| C[C@H](N)CCCc1cc(Cl)c(F)c(-c2cc3cn(-c4ccc(CNCC[C@H](CO)NC(=N)N)cc4)c(=O)nc3[nH]2)c1 [Compound 181] | < 16 µg/mL |
| C[C@H](N)CCCc1cc(SC(F)(F)F)cc(-c2cc3cn(-c4ccc([C@H](Cc5c[nH]nn5)NCCCNC(=N)N)cc4)c(=O)nc3[nH]2)c1 [Compound 48] | < 16 µg/mL |
| N=C(N)NCCCNCc1ccc(-n2cc3cc(-c4cc(C[C@H]5C[C@H](N)CCO5)cc(OC(F)(F)F)c4)[nH]c3nc2=O)cc1 [Compound 37] | < 16 µg/mL |
| C[C@H](N)CCCc1cc(SC(F)(F)F)cc(-c2cc3cn(-c4ccc(C(NCCCNC(=N)N)c5nnn[nH]5)cc4)c(=O)nc3[nH]2)c1 (some centres unmarked) [Compound 106] | < 16 µg/mL |
| C[C@H](N)CCCc1cc(Cl)c(F)c(-c2cc3cn(-c4ccc(CNCc5nn[nH]n5)cc4)c(=O)nc3[nH]2)c1 [Compound 162] | > 16 µg/mL |
| C[C@H](N)CCCc1cc(-c2cc3cn(-c4ccc([C@@H](NCCCNC(=N)N)c5cccnc5)cc4)c(=O)nc3[nH]2)cc(C(F)(F)F)c1 [Compound 84] | < 16 µg/mL |
